Reference: paper PMC7347136 (PLoS ONE, 2020)
Values joined by “and” are separate entries in the source; they are usually repeats but may differ in a detail not shown here. Equal values may be shown once. Read-outs that look alike come from different tables or passages of the source.

Key:
[1] = tested on: 184A1; assay: Resazurin reduction cell viability assay; format: cell-based, human
Description: (§1) Solid tumor cell lines were seeded in 100 μl medium into 96-well plates at an appropriate cell number determined by a cell dilution assay (Cal51–2000 cells/well; Colo205, MCF10A and 184A1–3000 cells/well and MDA-MB-468, HCC1954–4000 cells/well). AML suspension cells were seeded in 96-well plates at approximately 3000 cells per well. Cells were incubated overnight at 37°C, 5% CO2. The following day, 100 μl fresh medium containing increasing concentrations of appropriate compound was added and the cells were incubated for up to 72 h at 37°C, 5% CO2. For pulse treatment of solid (adherent) tumor cell lines, medium was aspirated and replaced with fresh drug-free medium. For pulse treatment of suspension lines, plates were centrifuged at 478 xg for 5 min at the end of the incubation period with compound, medium containing compound was carefully aspirated and replaced with fresh compound-free medium. A total of 72 h after the start of treatment, 20 μl of a 10X stock of resazurin sodium salt (Sigma-Aldrich, Dorset, UK) prepared in medium was added to the cells and incubated for up to 3 h. […] was measured on the Wallac Victor plate reader (Cambridge, UK) at 544–595 nm. IC50/70/90 calculations were determined in XLFit.

[2] = tested on: PL21; assay: Resazurin reduction cell viability assay; format: cell-based, human
Description: as §1

[3] = tested on: MDA-MB-231; assay: Resazurin reduction cell viability assay; format: cell-based, human
Description: as §1

[4] = tested on: MV4-11; assay: Resazurin reduction cell viability assay; format: cell-based, human
Description: as §1

[5] = tested on: MCF10A; assay: Resazurin reduction cell viability assay; format: cell-based, human
Description: as §1

[6] = tested on: A549; assay: Resazurin reduction cell viability assay; format: cell-based, human
Description: as §1

[7] = tested on: THP-1; assay: Resazurin reduction cell viability assay; format: cell-based, human
Description: as §1

[8] = tested on: HEL; assay: Resazurin reduction cell viability assay; format: cell-based, human
Description: as §1

[9] = tested on: KG-1; assay: Resazurin reduction cell viability assay; format: cell-based, human
Description: as §1

[10] = tested on: PC3; assay: Resazurin reduction cell viability assay; format: cell-based, human
Description: as §1

[11] = tested on: Colo205; assay: Resazurin reduction cell viability assay; format: cell-based, human; details: Homo sapiens, COLO 205, 72 h, 72 h continuous treatment; read-out: Colo205 IC50 ± SD
Description: as §1

[12] = tested on: OCI-AML5; assay: Resazurin reduction cell viability assay; format: cell-based, human
Description: as §1

[13] = tested on: A2780; assay: Resazurin reduction cell viability assay; format: cell-based, human; details: 6 h pulse
Description: as §1

[14] = tested on: OCI-AML2; assay: Resazurin reduction cell viability assay; format: cell-based, human
Description: as §1

[15] = tested on: MOLM-13; assay: Resazurin reduction cell viability assay; format: cell-based, human
Description: as §1

[16] = target: T1, CDK2/cyclin A (Homo sapiens, UniProt P24941); assay: Carna IC50 determination; format: biochemical; details: around Km [ATP]
T1 construct: purchased Carna Biosciences
Description: (§2) IC50 values were determined from a 10-point concentration curve using ATP concentrations approximating Km values. […] The percentage inhibition of each test solution was calculated, which allowed the IC50 value to be determined from concentration versus percentage inhibition curves by fitting to a four parameter logistic curve.

[17] = target: T2, CDK5/p25 (Homo sapiens, UniProt Q00535); assay: Carna IC50 determination; format: biochemical; details: around Km [ATP]
T2 construct: purchased Carna Biosciences
Description: as §2

[18] = target: T3, CLK1 (Homo sapiens, UniProt P49759); assay: Carna IC50 determination; format: biochemical; details: around Km [ATP]
T3 construct: purchased Carna Biosciences
Description: as §2

[19] = target: T4, CDK3/cyclin E1 (Homo sapiens, UniProt Q00526); assay: Carna IC50 determination; format: biochemical; details: around Km [ATP]
T4 construct: purchased Carna Biosciences
Description: as §2

[20] = target: T5, CDK4/cyclin D3 (Homo sapiens, UniProt P11802); assay: Carna IC50 determination; format: biochemical; details: around Km [ATP]
T5 construct: made in house
Description: as §2

[21] = target: T6, CLK2 (Homo sapiens, UniProt P49760); assay: Carna IC50 determination; format: biochemical; details: around Km [ATP]
T6 construct: purchased Carna Biosciences
Description: as §2

T4 sequence (Q00526 whole entry): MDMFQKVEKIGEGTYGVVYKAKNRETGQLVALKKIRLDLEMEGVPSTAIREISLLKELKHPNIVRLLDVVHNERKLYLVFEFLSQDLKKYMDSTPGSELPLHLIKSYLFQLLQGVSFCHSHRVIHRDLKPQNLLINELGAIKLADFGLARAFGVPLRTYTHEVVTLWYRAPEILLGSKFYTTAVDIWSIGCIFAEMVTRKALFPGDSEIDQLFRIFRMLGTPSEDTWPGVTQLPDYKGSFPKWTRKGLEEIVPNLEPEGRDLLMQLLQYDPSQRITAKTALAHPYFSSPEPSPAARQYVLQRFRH
T4 sequence (P24864 whole entry partner): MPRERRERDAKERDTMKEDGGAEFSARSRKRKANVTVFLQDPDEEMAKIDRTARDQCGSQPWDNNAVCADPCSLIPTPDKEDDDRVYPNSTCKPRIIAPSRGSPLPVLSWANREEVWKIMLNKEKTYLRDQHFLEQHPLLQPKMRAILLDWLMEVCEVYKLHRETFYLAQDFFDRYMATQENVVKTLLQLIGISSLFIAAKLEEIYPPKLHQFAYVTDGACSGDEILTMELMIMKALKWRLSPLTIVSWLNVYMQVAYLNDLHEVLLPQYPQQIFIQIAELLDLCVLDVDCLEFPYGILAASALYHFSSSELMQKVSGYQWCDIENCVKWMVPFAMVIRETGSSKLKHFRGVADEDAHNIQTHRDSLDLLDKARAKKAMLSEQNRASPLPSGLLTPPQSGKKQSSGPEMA
T3 sequence (P49759 whole entry): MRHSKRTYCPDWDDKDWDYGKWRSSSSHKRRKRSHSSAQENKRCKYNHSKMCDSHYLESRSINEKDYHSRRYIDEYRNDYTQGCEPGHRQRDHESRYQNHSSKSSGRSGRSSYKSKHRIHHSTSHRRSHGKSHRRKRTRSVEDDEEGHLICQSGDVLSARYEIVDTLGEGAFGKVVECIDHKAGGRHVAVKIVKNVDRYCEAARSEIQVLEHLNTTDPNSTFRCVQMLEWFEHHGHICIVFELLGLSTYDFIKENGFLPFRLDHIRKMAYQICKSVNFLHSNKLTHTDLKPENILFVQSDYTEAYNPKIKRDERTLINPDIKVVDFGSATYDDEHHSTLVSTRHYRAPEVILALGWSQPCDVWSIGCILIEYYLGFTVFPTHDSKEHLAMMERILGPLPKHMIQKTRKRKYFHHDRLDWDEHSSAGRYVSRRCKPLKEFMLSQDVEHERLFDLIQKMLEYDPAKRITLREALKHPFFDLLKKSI
T2 sequence (Q00535 whole entry): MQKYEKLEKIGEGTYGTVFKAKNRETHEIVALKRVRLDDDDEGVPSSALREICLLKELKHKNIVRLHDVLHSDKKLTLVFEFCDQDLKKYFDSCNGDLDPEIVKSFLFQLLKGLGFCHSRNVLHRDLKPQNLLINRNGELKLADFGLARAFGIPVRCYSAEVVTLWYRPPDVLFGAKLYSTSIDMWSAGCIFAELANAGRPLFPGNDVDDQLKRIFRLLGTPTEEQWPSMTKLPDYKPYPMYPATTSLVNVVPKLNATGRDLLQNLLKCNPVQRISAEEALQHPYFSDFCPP
T2 sequence (Q15078 99-307 partner limits assumed): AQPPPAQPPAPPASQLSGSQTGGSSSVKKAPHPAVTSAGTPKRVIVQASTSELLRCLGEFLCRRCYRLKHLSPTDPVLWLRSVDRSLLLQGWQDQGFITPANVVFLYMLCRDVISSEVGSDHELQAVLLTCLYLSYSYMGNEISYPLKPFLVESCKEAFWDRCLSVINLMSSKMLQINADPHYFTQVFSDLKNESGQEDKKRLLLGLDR
T6 sequence (P49760 whole entry): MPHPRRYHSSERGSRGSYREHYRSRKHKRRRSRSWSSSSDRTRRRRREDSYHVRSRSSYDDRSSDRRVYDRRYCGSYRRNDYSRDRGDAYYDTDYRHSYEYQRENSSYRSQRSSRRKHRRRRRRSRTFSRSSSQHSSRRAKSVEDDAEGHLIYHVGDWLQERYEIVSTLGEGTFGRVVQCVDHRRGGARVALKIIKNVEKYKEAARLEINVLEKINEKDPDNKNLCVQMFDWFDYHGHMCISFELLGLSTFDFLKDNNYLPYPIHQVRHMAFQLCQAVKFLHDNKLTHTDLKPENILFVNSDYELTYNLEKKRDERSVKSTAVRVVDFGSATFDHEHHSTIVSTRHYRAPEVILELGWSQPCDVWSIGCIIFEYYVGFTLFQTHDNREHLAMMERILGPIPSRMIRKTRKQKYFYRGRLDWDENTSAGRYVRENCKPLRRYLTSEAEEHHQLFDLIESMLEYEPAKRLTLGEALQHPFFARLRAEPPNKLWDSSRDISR
T5 sequence (P11802 whole entry): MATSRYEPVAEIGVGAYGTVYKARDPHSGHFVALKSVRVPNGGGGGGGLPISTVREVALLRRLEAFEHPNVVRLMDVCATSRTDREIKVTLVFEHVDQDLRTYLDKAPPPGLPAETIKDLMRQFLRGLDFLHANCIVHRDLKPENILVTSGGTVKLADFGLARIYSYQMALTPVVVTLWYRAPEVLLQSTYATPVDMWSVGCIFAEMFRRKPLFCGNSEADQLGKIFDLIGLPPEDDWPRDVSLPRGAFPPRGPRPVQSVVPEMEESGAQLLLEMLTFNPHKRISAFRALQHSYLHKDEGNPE
T5 sequence (P30281 whole entry partner): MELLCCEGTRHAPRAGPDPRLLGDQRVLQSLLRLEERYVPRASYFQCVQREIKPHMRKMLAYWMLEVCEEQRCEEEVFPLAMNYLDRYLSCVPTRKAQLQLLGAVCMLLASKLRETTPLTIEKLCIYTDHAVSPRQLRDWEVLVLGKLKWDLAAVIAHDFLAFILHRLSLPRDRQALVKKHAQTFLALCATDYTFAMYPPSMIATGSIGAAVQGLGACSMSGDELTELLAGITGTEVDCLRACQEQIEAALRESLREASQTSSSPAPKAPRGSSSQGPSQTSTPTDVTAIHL

How did the IC50 ([1]; Homo sapiens, 184A1, 72 h, 184A1, continuous 72 h, read-out: continuous IC50 ± SD) turn out when `CC[C@H](Nc1nc(NCc2cnc(C)cc2C)c2ncn(C(C)C)c2n1)[C@@H](C)O` [Fadraciclib, 2-pentanol, 3-[[6-[[(4,6-dimethyl-3-pyridinyl)methyl]amino]-9-(1-methylethyl)-9Hpurin-2-yl]amino]-, (2R,3S)] was run?
Its IC50 is 0.25 ± 0.01 µM.

And the IC50 ([1]; Homo sapiens, 184A1, read-out: 8 h pulse IC50 ± SD, 184A1 (non-malignant), 8 h pulse, read at 72 h)?
The IC50 was 3.9 µM.

And the IC50 ([1]; read-out: 8 h pulse IC50 ± SD, 184A1 (non-malignant), 8 h pulse, read at 72 h)?
The IC50 was 3.87 ± 2.1 µM.

And the IC50 ([2]; Homo sapiens, PL-21, 72 h, PL21, 72 h continuous, read-out: 72 h continuous IC50 ± SD)?
The IC50 was 0.34 ± 0.09 µM.

And the IC90 ([2]; Homo sapiens, PL-21, PL21, 6 h pulse then 66 h release)?
Its IC90 is 9.92 µM.

And the IC50 ([2]; Homo sapiens, PL-21, read-out: 6 h pulse IC50 ± SD, PL21, 6 h pulse then 66 h release)?
Its IC50 is 2.55 µM.

And the IC50 ([2]; read-out: 6 h pulse IC50 ± SD, PL21, 6 h pulse then 66 h release)?
The IC50 was 2.54 ± 2.71 µM.

What about the “sensitivity, 6 h pulse versus continuous 72 h” value [3] of the same compound?
Its value is “sensitive to fadraciclib only after more prolonged treatment”.

And the IC50 ([4]; Homo sapiens, MV4-11, 72 h, MV4-11, 72 h continuous, read-out: 72 h continuous IC50 ± SD)?
The IC50 was 0.26 ± 0.08 µM.

What about the IC50 ([4]; Homo sapiens, MV4-11, read-out: 6 h pulse IC50 ± SD, MV4-11, 6 h pulse then 66 h release) of the same compound?
The IC50 was 0.5 µM.

What about the IC90 ([4]; Homo sapiens, MV4-11, 6 h pulse then 66 h release) of the same compound?
Its IC90 is 0.92 µM.

And the IC50 ([4]; read-out: 6 h pulse IC50 ± SD, MV4-11, 6 h pulse then 66 h release)?
The IC50 was 0.51 ± 0.04 µM.

What about the IC50 ([5]; Homo sapiens, MCF-10A, 72 h, MCF10A, continuous 72 h, read-out: continuous IC50 ± SD) of the same compound?
Its IC50 is 0.4 ± 0.03 µM.

And the IC50 ([5]; Homo sapiens, MCF-10A, read-out: 8 h pulse IC50 ± SD, MCF10A (non-malignant), 8 h pulse, read at 72 h)?
Its IC50 is 3.9 µM.

And the IC50 ([5]; read-out: 8 h pulse IC50 ± SD, MCF10A (non-malignant), 8 h pulse, read at 72 h)?
Its IC50 is 3.89 ± 1.04 µM.

What about the “sensitivity, 6 h pulse versus continuous 72 h” value [6] of the same compound?
Its value is “sensitive to fadraciclib only after more prolonged treatment”.

And the IC50 ([7]; Homo sapiens, THP-1, 72 h, THP-1, 72 h continuous, read-out: 72 h continuous IC50 ± SD)?
Its IC50 is 0.57 ± 0.18 µM.

What about the IC50 ([7]; Homo sapiens, THP-1, 72 h, THP-1, value the 7 x 7 combination matrix spans, 72 h, read-out: IC50 value of each compound (single agent)) of the same compound?
Its IC50 is 0.43 µM.

What about the IC50 ([7]; Homo sapiens, THP-1, read-out: 6 h pulse IC50 ± SD, THP-1, 6 h pulse then 66 h release) of the same compound?
The IC50 was 1.1 µM.

What about the IC90 ([7]; Homo sapiens, THP-1, 6 h pulse then 66 h release) of the same compound?
The IC90 was 6.8 µM.

What about the IC50 ([7]; read-out: 6 h pulse IC50 ± SD, THP-1, 6 h pulse then 66 h release) of the same compound?
The IC50 was 1.08 ± 0.23 µM.

And the IC50 ([8]; Homo sapiens, 72 h, 72 h continuous, read-out: 72 h continuous IC50 ± SD)?
The IC50 was 0.53 ± 0.2 µM.

What about the IC50 ([8]; Homo sapiens, read-out: 6 h pulse IC50 ± SD, HEL, 6 h pulse then 66 h release) of the same compound?
Its IC50 is 5.12 µM.

What about the IC50 ([8]; read-out: 6 h pulse IC50 ± SD, 6 h pulse then 66 h release) of the same compound?
Its IC50 is 5.11 ± 0.88 µM.

And the IC50 ([9]; Homo sapiens, KG-1, 72 h, KG-1, 72 h continuous, read-out: 72 h continuous IC50 ± SD)?
Its IC50 is 0.35 ± 0.03 µM.

What about the IC50 ([9]; Homo sapiens, KG-1, read-out: 6 h pulse IC50 ± SD, KG-1, 6 h pulse then 66 h release) of the same compound?
The IC50 was 0.5 µM.

What about the IC90 ([9]; Homo sapiens, KG-1, 6 h pulse then 66 h release) of the same compound?
Its IC90 is 3.7 µM.

And the IC50 ([9]; read-out: 6 h pulse IC50 ± SD, KG-1, 6 h pulse then 66 h release)?
The IC50 was 0.47 ± 0.12 µM.

And the “sensitivity, 6 h pulse versus continuous 72 h” value [10]?
The value was “sensitive to fadraciclib only after more prolonged treatment”.

What about the IC50 [11] of the same compound?
The IC50 was 0.31 µM.

And the IC50 ([12]; Homo sapiens, OCI-AML-5, 72 h, OCI-AML5, 72 h continuous, read-out: 72 h continuous IC50 ± SD)?
The IC50 was 0.31 ± 0.13 µM.

What about the IC90 ([12]; Homo sapiens, OCI-AML-5, OCI-AML5, 6 h pulse then 66 h release) of the same compound?
The IC90 was 18.5 µM.

What about the IC50 ([12]; Homo sapiens, OCI-AML-5, read-out: 6 h pulse IC50 ± SD, OCI-AML5, 6 h pulse then 66 h release) of the same compound?
The IC50 was 1.44 µM.

And the IC50 ([12]; read-out: 6 h pulse IC50 ± SD, OCI-AML5, 6 h pulse then 66 h release)?
Its IC50 is 1.45 ± 0.05 µM.

What about the “IC50, short pulse” value [13] of the same compound?
The value was “submicromolar”.

And the IC50 ([14]; Homo sapiens, OCI-AML2, 72 h, OCI-AML2, 72 h continuous, read-out: 72 h continuous IC50 ± SD)?
The IC50 was 0.22 ± 0.03 µM.

And the IC50 ([14]; Homo sapiens, OCI-AML2, read-out: 6 h pulse IC50 ± SD, OCI-AML2, 6 h pulse then 66 h release)?
The IC50 was 0.53 µM.

What about the IC90 ([14]; Homo sapiens, OCI-AML2, 6 h pulse then 66 h release) of the same compound?
The IC90 was 1.8 µM.

And the IC50 ([14]; read-out: 6 h pulse IC50 ± SD, OCI-AML2, 6 h pulse then 66 h release)?
The IC50 was 0.55 ± 0.07 µM.

What about the IC50 ([15]; Homo sapiens, MOLM-13, 72 h, MOLM-13, 72 h continuous, read-out: 72 h continuous IC50 ± SD) of the same compound?
Its IC50 is 0.24 ± 0.05 µM.

And the IC50 ([15]; Homo sapiens, MOLM-13, read-out: 6 h pulse IC50 ± SD, MOLM-13, 6 h pulse then 66 h release)?
Its IC50 is 0.26 µM.

And the IC90 ([15]; Homo sapiens, MOLM-13, 6 h pulse then 66 h release)?
The IC90 was 0.4 µM.

What about the IC50 ([15]; read-out: 6 h pulse IC50 ± SD, MOLM-13, 6 h pulse then 66 h release) of the same compound?
Its IC50 is 0.25 ± 0.05 µM.

And the IC50 [16]?
The IC50 was 0.0045 ± 0.0004 µM.

And the IC50 [17]?
The IC50 was 0.0205 ± 0.001 µM.

And the IC50 [18]?
Its IC50 is 0.549 ± 0.081 µM.

What about the IC50 [19] of the same compound?
The IC50 was 0.029 µM and 0.0289 µM.

And the IC50 [20]?
The IC50 was 0.232 ± 0.027 µM.

And the IC50 [21]?
Its IC50 is 0.252 ± 0.008 µM.
